Measured values as given in patent US20210069295A1, “GALECTINS CONTROL MTOR IN RESPONSE TO ENDOMEMBRANE DAMAGE AND PROVIDE A MECHANISM AND TARGET FOR THE TREATMENT OF AUTOPHAGY-RELATED DISEASES” (STC. UNM, priority 2017, published 2021).

Key:
AMPKα = assay: Co-IP of FLAG-tagged galectins with endogenous AMPKα in HEK293T cells; type: binding; conditions: HEK293T overexpressing FLAG-tagged galectins
TAK1 = target: T1, TAK1 (Homo sapiens, UniProt O43318); assay: Co-IP of FLAG-tagged galectins with GFP-tagged TAK1 in HEK293T cells; type: binding; conditions: HEK293T overexpressing FLAG-tagged galectins and GFP-TAK1
T1 sequence (O43318 1-606): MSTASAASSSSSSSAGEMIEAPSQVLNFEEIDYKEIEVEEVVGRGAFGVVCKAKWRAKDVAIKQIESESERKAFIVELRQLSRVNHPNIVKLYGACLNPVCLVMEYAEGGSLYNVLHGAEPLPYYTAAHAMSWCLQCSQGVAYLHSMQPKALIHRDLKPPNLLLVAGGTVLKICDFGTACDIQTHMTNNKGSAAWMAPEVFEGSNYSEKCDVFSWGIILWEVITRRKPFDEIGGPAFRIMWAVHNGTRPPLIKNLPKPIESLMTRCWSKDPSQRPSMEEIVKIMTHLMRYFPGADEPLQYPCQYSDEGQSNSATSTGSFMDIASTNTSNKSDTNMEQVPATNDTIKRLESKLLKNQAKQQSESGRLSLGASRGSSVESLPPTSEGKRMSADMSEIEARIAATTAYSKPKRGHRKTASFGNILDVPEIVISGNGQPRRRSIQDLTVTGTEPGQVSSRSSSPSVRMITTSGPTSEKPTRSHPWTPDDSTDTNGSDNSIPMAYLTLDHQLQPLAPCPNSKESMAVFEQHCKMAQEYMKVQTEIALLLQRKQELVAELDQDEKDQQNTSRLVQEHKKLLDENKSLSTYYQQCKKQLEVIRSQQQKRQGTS
Protocol: (A) Analysis of the activation of AMPK in wildtype (WT) and the complementation of Gal9 in Gal9-knockout (Gal9KO) HEK293A cells treated with 100 μM GPN in full medium for 1 h. AMPK activity was monitored by immunoblotting analysis of AMPKα (T172) and acetyl-CoA carboxylase (ACC, S79) phosphorylation (phosphorylated AMPKα (T172) and ACC (S79) relative to total AMPKα and ACC respectively). (B) HEK293T cells transfected with scrambled siRNA (Scr) or Gal9 siRNA (Gal9KD) were treated with 2 mM LLOMe in full medium for 1 h, and the cell lysates were analyzed for phosphorylation of indicated proteins. Data, means±SEM, n=3, *p<0.05, ANOVA. (C) HEK293T cells overexpressing FLAG-Gal9 were treated with 2 mM LLOMe in full medium for 1 h. Cell lysates were analyzed for the indicated proteins. Data, means±SEM, n=3, *p<0.05, ANOVA. (D) Immunoprecipitation analysis of the interactions between galectins and TAK1. HEK293T cells overexpressing FLAG-tagged galectins and GFP-tagged TAK1 were subjected to anti-FLAG immunoprecipitation followed by immunoblotting for GFP-tagged TAK1. (E) Schematic diagram of Gal9 domains and deletion constructs. (F) HEK293T cells overexpressing FLAG-tagged full-length or truncated Gal9 and GFPAMPK were subjected to anti-FLAG immunoprecipitation, followed by immunoblotting for GFP-AMPK. (G) HEK293T cells overexpressing FLAG-tagged full-length or truncated Gal9 and GFP-TAK1 were subjected to anti-FLAG immunoprecipitation, followed by immunoblotting for GFP-TAK1. (H) Analysis of the activation of AMPK in HEK293T cells subjected to knockdowns as indicated treated with 100 μM GPN in full medium for 1 h. AMPK activity was monitored by immunoblotting analysis of AMPKα (T172) and acetyl-CoA carboxylase (ACC, S79) phosphorylation (phosphorylated AMPKα (T172) and ACC (S79) relative to total AMPKα and ACC respectively). Cells transfected with scrambled siRNA were as control (Scr). […]

| Substance | AMPKα in complexes (co-IP) with galectin (AMPKα) | interaction with TAK1 (TAK1) |
| --- | --- | --- |
| Gal8: protein of the galectin family encoded by the gene LGALS8; beta-galactoside-binding lectin | not detected | not |
| Gal9: beta-galactoside-binding lectin protein of the galectin family | found in co-IPs | interacted |
